Values quoted from earlier work, collected in patent US8263578B2, “Stable bortezomib formulations” (InnoPharma, Inc., priority 2010, dated 2012).
Read-outs that look alike come from different tables or passages of the source.

Conditions: 25° C.

- degraded (0.5 mg/mL in ethanol:normal saline solution (2:98, pH 2.8), 1 month): 20%
- degraded (propylene glycol:ethanol:water (50:10:40), 8 months): 20%
Structure (SMILES): CC(C)C[C@H](NC(=O)[C@H](Cc1ccccc1)NC(=O)c1cnccn1)B(O)O [Bortezomib, N-(2-pyrazine) carbonyl-L-phenylalanine-L-leucine boronic acid]
